Data published in US20250129088A1, “CEREBLON E3 UBIQUITIN LIGASE INHIBITOR” (Gan & Lee Pharmaceuticals Co., Ltd., priority 2022, published 2025).

How the values were obtained:
Type in all cases: cell-based
[1] = tested on: MV-4-11 cells; experiment: MV-4-11 cell proliferation inhibition, CCK-8; settings: Homo sapiens, MV4-11, 96 h, MV-4-11, 4 days
Experimental: The complete medium required for MV-4-11 cells is IMDM (ATCC, Product number: 30-2005) basal medium containing 10% fetal bovine serum. MV-4-11 cells were seeded in a 96-well plate at a density of 7,500 cells/well, and different concentrations of the compound of the present invention and positive control samples Alisertib (source: Bide Pharmaceuticals), Palbociclib (source: Bide Pharmaceuticals), Ibrutinib (source Bide Pharmaceuticals) treated cells. The cells were incubated in a 37° C., 5% CO2 cell incubator for 4 days. Cell viability was detected using the CCK-8 kit (Beyotime, Product number: C0040) according to the manufacturer's instructions. According to the inhibition rate, GraphPad Prism software was used to calculate the IC50 value of each compound for 4 days, and the results are shown in Table 6-8.

[2] = tested on: LNCaP FGC cells; experiment: LNCaP FGC cell proliferation inhibition, CCK-8; settings: Homo sapiens, 96 h, 4 days
Excerpt: The complete medium required for LNCaP FGC cells is RPMI 1640 (ATCC, Product number: 30-2001) basal medium containing 10% fetal calf serum. […] Cell viability was detected using the CCK-8 kit (Beyotime, Product number: C0040) according to the manufacturer's instructions.

[3] = tested on: VCaP cells; experiment: VCaP cell proliferation inhibition, CCK-8; settings: Homo sapiens, 168 h, 7 days
Excerpt: The complete medium required for VCaP cells is DMEM high glucose (Gibco, Product number: 11995-065) basal medium containing 10% fetal bovine serum. […] Cell viability was detected using the CCK-8 kit (Beyotime, Product number: C0040) according to the manufacturer's instructions.

[4] = Table 6, positive control Alisertib
[5] = Table 7, positive control Palbociclib

Row | IC50 [1, 4] [nM] | IC50 [1, 5] [nM] | SMILES | IC50 [2] [nM] | IC50 [3] [nM]
1 | 81 |  | COc1cc(Nc2ncc3c(n2)-c2ccc(Cl)cc2C(c2c(F)cccc2OC)=NC3)ccc1C(=O)N1CCC2(CC1)COc1cc3c(cc1O2)CN(C1CCC(=O)NC1=O)C3=O (centres unmarked) [PROTAC 2, 3-(1-(4-((9-chloro-7-(2-fluoro-6-methoxyphenyl)-5H-benzo[c]pyrimido[4,5-e]azepine-2-yl)amino)-2-methoxybenzoyl)-6′-oxo-6′,8′-dihydro-3′H,7′H-spiro[piperidine-4,2′-[1,4]dioxino[2,3-f]isoindole]-7′-yl)piperidine-2,6-dione] |  | 
2 | 420 |  | COc1cc(Nc2ncc3c(n2)-c2ccc(Cl)cc2C(c2c(F)cccc2OC)=NC3)ccc1C(=O)NCCOCCC(=O)N1CCC2(CCc3cc4c(cc3O2)C(=O)N(C2CCC(=O)NC2=O)C4=O)CC1 (centres unmarked) [PROTAC 5, 4-((9-chloro-7-(2-fluoro-6-methoxyphenyl)-5H-benzo[c]pyrimido[4,5-e]azepine-2-yl)amino)-N-(2-(3-(7′-(2,6-dioxopiperidin-3-yl)-6′,8′-dioxo-4′,6′,7′,8′-tetrahydro-3′H-spiro[piperidine-4,2′-pyrano[2,3-f]isoindol]-1-yl)-3-oxopropoxy)ethyl)-2-methoxybenzamide] |  | 
3 | 320 |  | COc1cc(Nc2ncc3c(n2)-c2ccc(Cl)cc2C(c2c(F)cccc2OC)=NC3)ccc1C(=O)NCCOCCC(=O)N1CCC2(CC1)COc1cc3c(cc1C2)C(=O)N(C1CCC(=O)NC1=O)C3=O (centres unmarked) [PROTAC 6, 4-((9-chloro-7-(2-fluoro-6-methoxyphenyl)-5H-benzo[c]pyrimido[4,5-e]azepine-2-yl)amino)-N-(2-(3-(7′-(2,6-dioxopiperidin-3-yl)-6′,8′-dioxo-4′,6′,7′,8′-tetrahydro-2′H-spiro[piperidine-4,3′-pyrano[2,3-f]isoindol]-1-yl)-3-oxopropoxy)ethyl)-2-methoxybenzamide] |  | 
4 | 380 |  | COc1cc(Nc2ncc3c(n2)-c2ccc(Cl)cc2C(c2c(F)cccc2OC)=NC3)ccc1C(=O)NCCOCCC(=O)N1CC2(CCc3cc4c(cc3O2)C(=O)N(C2CCC(=O)NC2=O)C4=O)C1 (centres unmarked) [PROTAC 8, 4-((9-chloro-7-(2-fluoro-6-methoxyphenyl)-5H-benzo[c]pyrimido[4,5-e]azepine-2-yl)amino)-N-(2-(3-(7′-(2,6-dioxopiperidin-3-yl)-6′,8′-dioxo-4′,6′,7′,8′-tetrahydro-3′H-spiro[azetidine-3,2′-pyrano[2,3-f]isoindol]-1-yl)-3-oxopropoxy)ethylbase)-2-methoxybenzamide] |  | 
5 |  | 5030 | CC(=O)c1c(C)c2cnc(Nc3ccc(N4CCN(CCOCCC(=O)N5CCC6(CCc7cc8c(cc7O6)C(=O)N(C6CCC(=O)NC6=O)C8=O)CC5)CC4)cn3)nc2n(C2CCCC2)c1=O (centres unmarked) [PROTAC 38, 1-(3-(2-(4-(6-((6-acetyl-8-cyclopentyl-5-methyl-7-oxo-7,8-dihydropyridone[2,3-d]pyrimidin-2-yl)amino)pyridin-3-yl)piperazin-1-yl)ethoxy)propionyl)-7′-(2,6-dioxopiperidin-3-yl)-3′,4′-dihydro-6′H-spiro[piperidine-4,2′-pyrano[2,3-f]isoindole]-6′,8′(7′H)-dione] |  | 
6 |  | 2090 | CC(=O)c1c(C)c2cnc(Nc3ccc(N4CCNCC4)cn3)nc2n(C2CCCC2)c1=O [Palbociclib, reference compound] |  | 

The next lines start with the compound.

Row | SMILES | IC50 [1, 4] [nM] | IC50 [1, 5] [nM] | IC50 [2] [nM] | IC50 [3] [nM]
7 | N#Cc1ccc(O[C@H]2CC[C@H](NC(=O)c3ccc(N4CCC(CN5CC6(CCc7cc8c(cc7O6)C(=O)N(C6CCC(=O)NC6=O)C8=O)C5)CC4)nn3)CC2)cc1Cl (some centres unmarked) [PROTAC 60] |  |  | 930 | 1200
8 | N#Cc1ccc(O[C@H]2CC[C@H](NC(=O)c3ccc(N4CCC5(CC4)CC(N4CCC6(CCc7cc8c(cc7O6)C(=O)N(C6CCC(=O)NC6=O)C8=O)CC4)C5)nn3)CC2)cc1Cl (some centres unmarked) [PROTAC 61] |  |  | 2200 | 80
9 | N#Cc1ccc(O[C@H]2CC[C@H](NC(=O)c3ccc(N4CC(N5CCC6(CCc7cc8c(cc7O6)CN(C6CCC(=O)NC6=O)C8=O)CC5)C4)nn3)CC2)cc1Cl (some centres unmarked) [PROTAC 62] |  |  | 1160 | 100
10 | N#Cc1ccc(O[C@H]2CC[C@H](NC(=O)c3ccc(N4CCC5(CC4)CC(N4CCC6(CC4)COc4cc7c(cc46)C(=O)N(C4CCC(=O)NC4=O)C7=O)C5)nn3)CC2)cc1Cl (some centres unmarked) [PROTAC 63] |  |  | 170 | 51
11 | N#Cc1ccc(O[C@H]2CC[C@H](NC(=O)c3ccc(N4CC(N5CCC6(CC5)COc5cc7c(cc5C6)C(=O)N(C5CCC(=O)NC5=O)C7=O)C4)nn3)CC2)cc1Cl (some centres unmarked) [PROTAC 64, N-((1r,4r)-4-(3-chloro-4-cyanophenoxy)cyclohexyl)-6-(3-(7′-(2,6-dioxopiperidin-3-yl)-6′,8′-dioxo-4′,6′,7′,8′-tetrahydro-2′H-spiro[piperidine-4,3′-pyran[2,3-f]isoindole]-1-yl)azetidin-1-yl]pyridazine-3-carboxamide] |  |  | 130 | 960
12 | N#Cc1ccc(O[C@H]2CC[C@H](NC(=O)c3ccc(N4CCC(CN5CCC6(CC5)COc5cc7c(cc5O6)CN(C5CCC(=O)NC5=O)C7=O)CC4)nn3)CC2)cc1Cl (some centres unmarked) [PROTAC 65] |  |  | 2370 | 1.1
13 | N#Cc1ccc(O[C@H]2CC[C@H](NC(=O)c3ccc(N4CCC(CN5CCC6(CC5)Cc5cc7c(cc5O6)C(=O)N(C5CCC(=O)NC5=O)C7=O)CC4)nn3)CC2)cc1Cl (some centres unmarked) [PROTAC 66, N-((1r,4r)-4-(3-chloro-4-cyanophenoxy)cyclohexyl)-6-(4-((6-(2,6-dioxopiperidine-3-yl)-5,7-dioxo-3,5,6,7-tetrahydrospiro[furo[2,3-f]isoindole-2,4′-piperidinyl]-1′-yl)methyl)piperidin-1-yl) pyridazine-3-carboxamide] |  |  | 3000 | 50
14 | N#Cc1ccc(O[C@H]2CC[C@H](NC(=O)c3ccc(N4CC(N5CCC6(CC5)Cc5cc7c(cc5O6)C(=O)N(C5CCC(=O)NC5=O)C7=O)C4)nn3)CC2)cc1Cl (some centres unmarked) [PROTAC 67, N-((1r,4r)-4-(3-chloro-4-cyanophenoxy)cyclohexyl)-6-(3-(6-(2,6-dioxypiperidin-3-yl)-5,7-dioxo-3,5,6,7-tetrahydrospiro[furo[2,3-f]isoindole-2,4′-piperidin]-1′-yl)azetidin-1-yl)pyridazine-3-carboxamide] |  |  | 6100 | 6500
15 | CC1(C)C(=O)N(c2ccc(C#N)c(C(F)(F)F)c2)C(=S)N1c1ccc(C(=O)N2CCC(F)(CN3CC4(CCc5cc6c(cc5O4)C(=O)N(C4CCC(=O)NC4=O)C6)C3)CC2)c(F)c1 (centres unmarked) [PROTAC 68] |  |  | 3860 | 30
16 | CC1(C)C(=O)N(c2ccc(C#N)c(C(F)(F)F)c2)C(=S)N1c1ccc(C(=O)N2CCC(CN3CCC4(CC3)COc3cc5c(cc3C4)C(=O)N(C3CCC(=O)NC3=O)C5=O)CC2)c(F)c1 (centres unmarked) [PROTAC 69] |  |  | 3390 | 4260
17 | CC1(C)C(=O)N(c2ccc(C#N)c(C(F)(F)F)c2)C(=S)N1c1ccc(C(=O)N2CC(CN3CCC4(CCc5cc6c(cc5O4)C(=O)N(C4CCC(=O)NC4=O)C6=O)CC3)C2)c(F)c1 (centres unmarked) [PROTAC 71] |  |  |  | 4570
18 | CC1(C)C(=O)N(c2ccc(C#N)c(C(F)(F)F)c2)C(=S)N1c1ccc(C(=O)N2CCC(N3CCC4(CC3)COc3cc5c(cc3C4)C(=O)N(C3CCC(=O)NC3=O)C5=O)CC2)c(F)c1 (centres unmarked) [PROTAC 78, 4-(3-(4-(4-(7′-(2,6-dioxopiperidin-3-yl)-6′,8′-dioxo-4′,6′,7′,8′-tetrahydro-2′H-spiro[piperidine-4,3′-pyrano[2,3-f]isoindol]-1-yl)piperidine-1-carbonyl)-3-fluorophenyl)-4,4-dimethyl-5-oxo-2-thioimidazolidin-1-yl)-2-(trifluoromethyl)benzonitrile] |  |  |  | 2700
19 | CC1(C)C(=O)N(c2ccc(C#N)c(C(F)(F)F)c2)C(=S)N1c1ccc(C(=O)N2CC3(CC(N4CCC5(CC4)COc4cc6c(cc45)C(=O)N(C4CCC(=O)NC4=O)C6=O)C3)C2)c(F)c1 (centres unmarked) [PROTAC 79, 4-(3-(4-(6-(6-(2,6-dioxopiperidin-3-yl)-5,7-dioxo-6,7-dihydro-2H,5H-spiro[furo[2,3-f]isoindole-3,4′-piperidin]-1′-yl)-2-azaspiro[3.3]heptane-2-carbonyl)-3-fluorophenyl)-4,4-dimethyl-5-oxo-2-thioimidazolidin-1-yl)-2-(trifluoromethyl)benzonitrile] |  |  |  | 4090
20 | CC1(C)C(=O)N(c2ccc(C#N)c(C(F)(F)F)c2)C(=S)N1c1ccc(C(=O)N2CC(N3CCC4(CC3)COc3cc5c(cc34)C(=O)N(C3CCC(=O)NC3=O)C5=O)C2)c(F)c1 (centres unmarked) [PROTAC 81, 4-(3-(4-(3-(6-(2,6-dioxopiperidin-3-yl)-5,7-dioxo-6,7-dihydro-2H,5H-spiro[furo[2,3-f]isoindole-3,4′-piperidin]-1′-yl)azetidine-1-carbonyl)-3-fluorophenyl)-4,4-dimethyl-5-oxo-2-thioimidazolidin-1-yl)-2-(trifluoromethyl)benzonitrile] |  |  |  | 9510
21 | CC1(C)C(=O)N(c2ccc(C#N)c(C(F)(F)F)c2)C(=S)N1c1ccc(C(=O)N2CCC(F)(CN3CCC4(CCc5cc6c(cc5O4)C(=O)N(C4CCC(=O)NC4=O)C6=O)CC3)CC2)c(F)c1 (centres unmarked) [PROTAC 82] |  |  |  | 1300
22 | CC1(C)C(=O)N(c2ccc(C#N)c(C(F)(F)F)c2)C(=S)N1c1ccc(C(=O)N2CCC(CN3CCC4(CCc5cc6c(cc5O4)C(=O)N(C4CCC(=O)NC4=O)C6=O)CC3)CC2)c(F)c1 (centres unmarked) [PROTAC 84] |  |  |  | 3800
